According to patent US20230017786A1, “DEXTR[…] A DISEASE-MODIFYING TREATMENT FOR NEUROPSYCHIATRIC DISORDERS AND DISEASES” (priority 2020, published 2023):

Experiments:
[1] = molecular target: T1, human NMDA receptor GluN1-GluN2D (Homo sapiens, UniProt O15399+Q05586); assay: FLIPR calcium assay, test item effect on L-glutamate CRC, GluN1-GluN2D-CHO; format: cell-based
T1 construct: expressed in transfected cells; host or cells: CHO

[2] = molecular target: T2, human NMDA receptor GluN1-GluN2B (Homo sapiens, UniProt Q05586+Q13224); assay: FLIPR calcium assay, quinolinic acid, gentamicin, dextromethadone (Example 5 Part II), GluN1-GluN2B-CHO; format: cell-based; conditions: 10 μM glycine; for calcium response (mean±SEM): GluN2B, n=42
T2 construct: expressed in transfected cells; host or cells: CHO

[3] = molecular target: T3, human NMDA receptor GluN1-GluN2C (Homo sapiens, UniProt Q05586+Q14957); assay: FLIPR calcium assay, quinolinic acid, gentamicin, dextromethadone (Example 5 Part II), GluN1-GluN2C-CHO; format: cell-based; conditions: 10 μM glycine; for calcium response (mean±SEM): GluN2C, n=42
T3 construct: expressed in transfected cells; host or cells: CHO

healthy subjects = assay: Phase 1 SAD and MAD studies, safety and tolerability
[4] = molecular target: T4, recombinant human NMDAR GluN1 plus GluN2D (Homo sapiens, UniProt O15399+Q05586); assay: FLIPR calcium assay, gentamicin as PAM (Example 5 Part I), GluN2D cell line; format: cell-based; conditions: 10 μM test item; dextromethadone in presence and absence of 10 μM gentamicin
T4 construct: expressed in transfected cells; host or cells: CHO
From the text: (§1) A FLIPR calcium assay was used to profile gentamicin using stable cell lines expressing diheteromeric recombinant human NMDARs, containing GluN1 plus one amongst GluN2A, GluN2B, GluN2C or GluN2D subunit.

5-HT2C receptor = molecular target: T5, 5-HT2C receptor (Homo sapiens, UniProt P28335); conditions: agonist; Rickli et al., 2018; cited from earlier work
T5 sequence (P28335 33-458): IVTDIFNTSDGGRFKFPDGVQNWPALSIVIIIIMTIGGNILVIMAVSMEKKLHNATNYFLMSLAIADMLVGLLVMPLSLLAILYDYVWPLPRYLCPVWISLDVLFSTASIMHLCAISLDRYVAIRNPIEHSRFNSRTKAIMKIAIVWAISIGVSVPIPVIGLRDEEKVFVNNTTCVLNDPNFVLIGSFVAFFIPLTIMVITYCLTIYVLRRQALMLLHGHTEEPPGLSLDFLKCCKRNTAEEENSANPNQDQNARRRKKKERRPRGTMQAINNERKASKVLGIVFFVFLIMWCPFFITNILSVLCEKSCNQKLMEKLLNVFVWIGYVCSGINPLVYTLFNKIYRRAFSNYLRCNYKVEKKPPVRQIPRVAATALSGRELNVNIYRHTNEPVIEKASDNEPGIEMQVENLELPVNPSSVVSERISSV

[5] = molecular target: T6, recombinant human NMDAR GluN1 plus GluN2C (Homo sapiens, UniProt Q05586+Q14957); assay: FLIPR calcium assay, gentamicin as PAM (Example 5 Part I), GluN2C cell line; format: cell-based; conditions: 10 μM test item; dextromethadone in presence and absence of 10 μM gentamicin
T6 construct: expressed in transfected cells; host or cells: CHO
From the text: as §1

[6] = molecular target: T7, human NMDA receptor GluN1-GluN2A (Homo sapiens, UniProt Q05586+Q12879); assay: FLIPR calcium assay, test item effect on L-glutamate CRC, GluN1-GluN2A-CHO; format: cell-based
T7 construct: expressed in transfected cells; host or cells: CHO

[7] = operational analysis for allosteric modulators
[8] = 0.04 μM L-Glu + 1000 μM QA + 10 μM DXT
[9] = 0.2 μM L-Glu + 100 μM QA + 10 μM DXT
[10] = 0.2 μM L-Glu + 1000 μM QA + 10 μM DXT
[11] = 1000 μM QA + 10 μg/ml GENT + 10 μM DXT
[12] = Table 41: 0.04 μM L-Glu + 10 μM DXT
[13] = Table 43: 0.2 μM L-Glu + 10 μM DXT

T7 sequence (Q12879 23-1464, other chains not shown): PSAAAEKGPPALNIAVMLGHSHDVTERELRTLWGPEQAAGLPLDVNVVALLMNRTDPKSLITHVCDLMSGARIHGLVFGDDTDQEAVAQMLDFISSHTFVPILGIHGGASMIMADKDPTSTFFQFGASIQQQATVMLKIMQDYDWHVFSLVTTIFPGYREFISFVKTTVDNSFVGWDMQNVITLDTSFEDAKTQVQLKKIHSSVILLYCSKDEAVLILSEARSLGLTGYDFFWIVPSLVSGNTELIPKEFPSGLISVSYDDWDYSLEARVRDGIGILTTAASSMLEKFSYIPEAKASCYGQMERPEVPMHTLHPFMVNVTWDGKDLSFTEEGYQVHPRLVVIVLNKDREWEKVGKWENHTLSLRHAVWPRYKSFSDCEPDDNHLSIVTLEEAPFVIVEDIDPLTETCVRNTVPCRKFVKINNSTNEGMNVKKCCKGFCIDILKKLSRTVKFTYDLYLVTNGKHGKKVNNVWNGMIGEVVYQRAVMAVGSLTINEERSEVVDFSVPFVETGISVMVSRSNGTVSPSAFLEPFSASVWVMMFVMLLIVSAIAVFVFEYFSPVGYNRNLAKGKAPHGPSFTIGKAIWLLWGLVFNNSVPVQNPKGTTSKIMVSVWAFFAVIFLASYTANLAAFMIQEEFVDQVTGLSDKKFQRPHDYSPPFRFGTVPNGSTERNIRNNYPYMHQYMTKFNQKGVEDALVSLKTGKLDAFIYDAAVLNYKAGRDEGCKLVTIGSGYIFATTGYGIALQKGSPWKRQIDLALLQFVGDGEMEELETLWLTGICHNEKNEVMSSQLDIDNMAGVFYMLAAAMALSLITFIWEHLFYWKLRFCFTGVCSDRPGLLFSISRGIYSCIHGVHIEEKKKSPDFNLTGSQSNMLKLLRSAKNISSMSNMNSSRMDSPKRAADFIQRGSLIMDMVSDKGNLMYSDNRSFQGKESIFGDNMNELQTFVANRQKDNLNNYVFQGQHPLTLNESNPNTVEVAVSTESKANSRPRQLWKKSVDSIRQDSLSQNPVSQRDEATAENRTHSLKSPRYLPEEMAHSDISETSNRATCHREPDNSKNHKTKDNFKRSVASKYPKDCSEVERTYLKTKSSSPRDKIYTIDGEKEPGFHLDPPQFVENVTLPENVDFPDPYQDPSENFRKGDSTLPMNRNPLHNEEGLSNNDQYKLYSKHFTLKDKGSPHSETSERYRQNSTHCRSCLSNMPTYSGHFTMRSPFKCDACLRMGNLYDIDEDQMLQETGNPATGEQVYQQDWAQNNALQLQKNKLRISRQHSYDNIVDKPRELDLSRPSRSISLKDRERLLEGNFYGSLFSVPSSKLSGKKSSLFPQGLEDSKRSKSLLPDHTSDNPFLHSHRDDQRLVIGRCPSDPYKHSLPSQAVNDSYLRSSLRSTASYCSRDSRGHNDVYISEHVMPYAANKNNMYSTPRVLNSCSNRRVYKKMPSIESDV
T2 sequence (Q13224 27-1484, other chains not shown): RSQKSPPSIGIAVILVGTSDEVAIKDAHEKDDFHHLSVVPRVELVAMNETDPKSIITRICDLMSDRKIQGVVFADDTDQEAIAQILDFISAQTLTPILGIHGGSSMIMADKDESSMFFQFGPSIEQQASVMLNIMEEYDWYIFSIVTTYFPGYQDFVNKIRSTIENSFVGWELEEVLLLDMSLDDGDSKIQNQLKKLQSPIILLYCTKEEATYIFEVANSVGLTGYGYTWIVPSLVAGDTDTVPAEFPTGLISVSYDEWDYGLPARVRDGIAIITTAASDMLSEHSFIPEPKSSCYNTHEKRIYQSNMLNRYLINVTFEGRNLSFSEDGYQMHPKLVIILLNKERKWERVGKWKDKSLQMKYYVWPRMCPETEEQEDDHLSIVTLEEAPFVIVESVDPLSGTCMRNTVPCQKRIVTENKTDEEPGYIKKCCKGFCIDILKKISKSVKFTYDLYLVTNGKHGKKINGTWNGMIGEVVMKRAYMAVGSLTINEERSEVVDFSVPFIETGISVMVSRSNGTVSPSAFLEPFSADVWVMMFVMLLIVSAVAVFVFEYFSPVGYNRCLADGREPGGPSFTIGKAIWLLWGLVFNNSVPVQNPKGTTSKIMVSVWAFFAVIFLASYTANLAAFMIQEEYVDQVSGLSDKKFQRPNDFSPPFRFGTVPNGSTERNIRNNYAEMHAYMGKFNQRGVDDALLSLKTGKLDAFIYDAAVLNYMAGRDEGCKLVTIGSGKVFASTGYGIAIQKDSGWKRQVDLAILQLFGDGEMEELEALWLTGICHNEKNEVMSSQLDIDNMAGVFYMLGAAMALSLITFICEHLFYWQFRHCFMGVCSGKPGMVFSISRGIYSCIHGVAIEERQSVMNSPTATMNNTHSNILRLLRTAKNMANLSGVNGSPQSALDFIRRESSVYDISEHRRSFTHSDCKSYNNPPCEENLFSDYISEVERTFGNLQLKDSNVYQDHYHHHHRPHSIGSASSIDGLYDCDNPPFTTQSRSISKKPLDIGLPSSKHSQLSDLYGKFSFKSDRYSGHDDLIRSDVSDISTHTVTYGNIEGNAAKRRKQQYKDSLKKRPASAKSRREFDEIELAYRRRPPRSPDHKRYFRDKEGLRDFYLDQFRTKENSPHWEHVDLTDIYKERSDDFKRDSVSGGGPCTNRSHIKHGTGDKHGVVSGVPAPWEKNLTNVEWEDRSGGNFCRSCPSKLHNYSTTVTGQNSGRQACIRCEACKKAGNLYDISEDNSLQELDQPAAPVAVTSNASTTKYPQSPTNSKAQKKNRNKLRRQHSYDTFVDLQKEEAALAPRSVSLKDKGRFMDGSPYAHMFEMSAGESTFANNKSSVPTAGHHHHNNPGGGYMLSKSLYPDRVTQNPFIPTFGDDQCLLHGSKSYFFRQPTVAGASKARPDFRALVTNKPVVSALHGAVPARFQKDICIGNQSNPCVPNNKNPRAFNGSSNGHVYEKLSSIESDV
T1 sequence (O15399 28-1336, other chains not shown): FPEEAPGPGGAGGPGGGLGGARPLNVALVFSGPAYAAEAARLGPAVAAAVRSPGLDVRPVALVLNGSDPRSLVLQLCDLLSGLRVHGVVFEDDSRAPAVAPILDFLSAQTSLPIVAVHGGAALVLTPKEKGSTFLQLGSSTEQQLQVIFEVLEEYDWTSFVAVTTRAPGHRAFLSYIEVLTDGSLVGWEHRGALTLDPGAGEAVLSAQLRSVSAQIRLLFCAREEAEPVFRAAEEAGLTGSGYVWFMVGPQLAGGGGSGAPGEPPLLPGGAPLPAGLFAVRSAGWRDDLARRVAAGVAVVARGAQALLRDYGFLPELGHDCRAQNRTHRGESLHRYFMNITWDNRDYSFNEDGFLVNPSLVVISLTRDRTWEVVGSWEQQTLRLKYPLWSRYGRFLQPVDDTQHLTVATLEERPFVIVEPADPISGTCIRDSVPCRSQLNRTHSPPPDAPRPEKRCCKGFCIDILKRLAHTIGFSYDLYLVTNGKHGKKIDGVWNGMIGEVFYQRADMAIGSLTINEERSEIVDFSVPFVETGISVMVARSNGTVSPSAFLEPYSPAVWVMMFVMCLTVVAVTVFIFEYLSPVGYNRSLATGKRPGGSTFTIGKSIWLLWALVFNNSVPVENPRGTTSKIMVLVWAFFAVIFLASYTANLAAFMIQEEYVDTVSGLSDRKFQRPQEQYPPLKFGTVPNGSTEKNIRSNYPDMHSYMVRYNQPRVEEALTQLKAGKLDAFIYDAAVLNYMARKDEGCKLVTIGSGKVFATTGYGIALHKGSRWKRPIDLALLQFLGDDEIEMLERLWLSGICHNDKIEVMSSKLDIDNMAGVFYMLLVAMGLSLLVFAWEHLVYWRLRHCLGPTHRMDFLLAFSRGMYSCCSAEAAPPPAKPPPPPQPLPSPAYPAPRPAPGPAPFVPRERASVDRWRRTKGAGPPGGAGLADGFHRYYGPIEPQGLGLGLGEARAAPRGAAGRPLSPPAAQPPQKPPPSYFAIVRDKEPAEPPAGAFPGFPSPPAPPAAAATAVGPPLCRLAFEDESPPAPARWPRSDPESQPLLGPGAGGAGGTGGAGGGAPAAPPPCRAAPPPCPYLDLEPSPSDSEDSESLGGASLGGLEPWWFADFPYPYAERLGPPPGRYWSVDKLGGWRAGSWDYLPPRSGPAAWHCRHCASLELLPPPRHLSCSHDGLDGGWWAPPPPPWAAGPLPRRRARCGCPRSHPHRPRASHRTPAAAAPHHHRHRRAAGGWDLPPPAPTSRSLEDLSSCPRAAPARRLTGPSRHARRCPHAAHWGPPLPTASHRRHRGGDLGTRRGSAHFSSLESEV
T4 sequence (O15399 28-1336, other chains not shown): as above

In the case of CCC(=O)C(C[C@H](C)N(C)C)(c1ccccc1)c1ccccc1 [Dextromethadone, dextromethadone], the “α, estimated cooperativity term” value [1, 7] is reported as 0.22, the “L-glutamate CRC HillSlope” value ([1]; with test item 49 nM) is reported as 1.3 and the “L-glutamate CRC LogEC50” value ([1]; with test item 49 nM) is reported as −7.5. The “L-glutamate CRC HillSlope” value ([1]; with test item 195 nM) was 1.3, the “L-glutamate CRC LogEC50” value ([1]; with test item 195 nM) was −7.5 and the “L-glutamate CRC HillSlope” value ([1]; with test item 781 nM) was 1.7. The “L-glutamate CRC LogEC50” value ([1]; with test item 781 nM) was −7.5, the “L-glutamate CRC HillSlope” value ([1]; with test item 3.1 μM) was 1.5 and the “L-glutamate CRC LogEC50” value ([1]; with test item 3.1 μM) was −7.4. For the same molecule, the “L-glutamate CRC HillSlope” value ([1]; with test item 12.5 μM) was 1.1, the “L-glutamate CRC LogEC50” value ([1]; with test item 12.5 μM) was −7.1 and the “L-glutamate CRC LogEC50” value ([1]; with test item 50 μM) was −6.9. For the same molecule, the “calcium response (mean±SEM)” value ([2]; 0.04 μM L-Glu + 10 μM DXT) was 0.2 ± 0.4, the “calcium response (mean±SEM)” value [2, 8] was 13 ± 1.0 and the “calcium response (mean±SEM)” value ([2]; 0.2 μM L-Glu + 10 μM DXT) was 8.0 ± 0.5. For the same molecule, the “calcium response (mean±SEM)” value [2, 9] was 9.9 ± 0.8, the “calcium response (mean±SEM)” value [2, 10] was 13 ± 1.0 and the “% effect on calcium entry, 100 QA + 10 DXT” value ([2]; 100 μM QA + 10 μM DXT) was −1.0 ± 0.8%. For the same molecule, the “calcium response (mean±SEM)” value ([2]; 1000 μM QA + 10 μM DXT) was 12 ± 0.7, the “% effect on calcium entry, 1000 QA + 10 DXT” value ([2]; 1000 μM QA + 10 μM DXT) was 12 ± 0.7% and the “calcium response (mean±SEM)” value [2, 11] was 21 ± 0.9. For the same molecule, the “calcium response (mean±SEM)” value [2, 12] was 0.2 ± 0.4, the “calcium response (mean±SEM)” value [2, 13] was 8.0 ± 0.5 and the “calcium response (mean±SEM)” value ([3]; 0.04 μM L-Glu + 10 μM DXT) was 1.6 ± 0.4. The “calcium response (mean±SEM)” value ([3]; 0.04 μM L-Glu + 100 μM QA + 10 μM DXT) was −2.5 ± 0.7, the “calcium response (mean±SEM)” value [3, 8] was −8.6 ± 1.5 and the “calcium response (mean±SEM)” value ([3]; 0.2 μM L-Glu + 10 μM DXT) was 13 ± 0.7. For the same molecule, the “calcium response (mean±SEM)” value [3, 9] was 7.7 ± 0.6, the “calcium response (mean±SEM)” value [3, 10] was −3.8 ± 0.9 and the “% effect on calcium entry, 100 QA + 10 DXT” value ([3]; 100 μM QA + 10 μM DXT) was −3.3 ± 0.5%. The “calcium response (mean±SEM)” value ([3]; 1000 μM QA + 10 μM DXT) was −8.0 ± 0.4, the “% effect on calcium entry, 1000 QA + 10 DXT” value ([3]; 1000 μM QA + 10 μM DXT) was −8.0 ± 0.4% and the “calcium response (mean±SEM)” value [3, 11] was −11 ± 0.9. For the same molecule, the “calcium response (mean±SEM)” value [3, 12] was 1.6 ± 0.4, the “calcium response (mean±SEM)” value [3, 13] was 13 ± 0.7 and the “QTcF changes from base-line” value (healthy subjects; SAD and MAD) was “none of the changes were considered clinically significant”. The “respiratory depression, dissociative and psychotomimetic effects, withdrawal signs and symptoms” value (healthy subjects; SAD and MAD, abrupt discontinuation) was “no evidence”, the tolerability (healthy subjects; single doses up to 150 mg and daily doses up to 75 mg for 10 days) was “well tolerated” and the “calcium entry induced by 0.04 μM L-glutamate” value [4] was “significantly reduced”. The “calcium entry induced by 0.2 μM L-glutamate” value [4] was “significantly reduced”, the “calcium entry induced by 10 μM L-glutamate” value [4] was “significantly reduced” and the Ki (5-HT2C receptor) was 1.9 µM. The “calcium entry induced by 0.04 μM L-glutamate” value [5] was “significantly reduced”, the “calcium entry induced by 0.2 μM L-glutamate” value [5] was “significantly reduced” and the “calcium entry induced by 10 μM L-glutamate” value [5] was “significantly reduced”. For the same molecule, the “α, estimated cooperativity term” value [6, 7] was 0.22, the “L-glutamate CRC HillSlope” value ([6]; with test item 49 nM) was 1.0 and the “L-glutamate CRC LogEC50” value ([6]; with test item 49 nM) was −6.7. For the same molecule, the “L-glutamate CRC HillSlope” value ([6]; with test item 195 nM) was 1.1, the “L-glutamate CRC LogEC50” value ([6]; with test item 195 nM) was −6.6 and the “L-glutamate CRC HillSlope” value ([6]; with test item 781 nM) was 1.1. The “L-glutamate CRC LogEC50” value ([6]; with test item 781 nM) was −6.6, the “L-glutamate CRC HillSlope” value ([6]; with test item 3.1 μM) was 1.0 and the “L-glutamate CRC LogEC50” value ([6]; with test item 3.1 μM) was −6.6. For the same molecule, the “L-glutamate CRC HillSlope” value ([6]; with test item 12.5 μM) was 1.0, the “L-glutamate CRC LogEC50” value ([6]; with test item 12.5 μM) was −6.4 and the “L-glutamate CRC HillSlope” value ([6]; with test item 50 μM) was 1.4. For the same molecule, the “L-glutamate CRC LogEC50” value ([6]; with test item 50 μM) was −6.4.
